How the values were obtained:
[1] = system: Oryza sativa, (L.) Tebonnet; assay: Rice tolerance to post-transplant applications under flooded paddy conditions (Example 187), ORYSAT (Rice, Tebonnet); settings: for ORYSAT: herbicidal effect rating 0-9, three to four weeks after treatment; for ORYSAT herbicidal effect rating / herbicidal effect rating, ORYSAT (rice tolerance): rated three to four weeks after treatment; for herbicidal effect rating ORYSAT: rated 3-4 weeks after treatment; as to herbicidal effect rating ORYSAT: meaning of each grade not given here
[2] = system: Echinochloa oryzoides (Ard.) Fritsch.; assay: Preemergence weed control under flooded paddy conditions, ECHORC (Watergrass (Calif.)); assay type: in vivo; settings: flooded paddy; for ECHORC: herbicidal effect rating 0-9, three to four weeks after treatment; as to herbicidal effect rating, ECHORC: meaning of each grade not given here
[3] = system: Sagittaria pygmaea, L.; assay: Preemergence weed control under flooded paddy conditions, SAGPY (Arrowhead (Pygmaea)); assay type: in vivo; settings: flooded paddy; for SAGPY: herbicidal effect rating 0-9, three to four weeks after treatment; as to herbicidal effect rating, SAGPY: meaning of each grade not given here
[4] = system: Cyperus serotinus, Rottb.; assay: Preemergence weed control under flooded paddy conditions, CYPSE (Flatsedge); assay type: in vivo; settings: for CYPSE: herbicidal effect rating 0-9, three to four weeks after treatment; as to herbicidal effect rating, CYPSE: meaning of each grade not given here
[5] = system: Cyperus iria; assay: Preemergence weed control under flooded paddy conditions, CYPIR (Rice Flatsedge); assay type: in vivo; settings: flooded paddy; for CYPIR: herbicidal effect rating 0-9, three to four weeks after treatment; as to herbicidal effect rating, CYPIR: meaning of each grade not given here
[6] = system: Monochoria vaginalis, Presl.; assay: Preemergence weed control under flooded paddy conditions, MOOVA (Monochoria); assay type: in vivo; settings: flooded paddy; for MOOVA: herbicidal effect rating 0-9, three to four weeks after treatment; as to herbicidal effect rating, MOOVA: meaning of each grade not given here
[7] = 0.0320 kg/ha, preemergence weeds
[8] = 0.0620 kg/ha, preemergence weeds
[9] = 0.1250 kg/ha, preemergence weeds
[10] = 0.2500 kg/ha, preemergence weeds
[11] = Rate 0.0320 kg/ha, preemergence, rated three to four weeks after treatment
[12] = Rate 0.0620 kg/ha, preemergence, rated three to four weeks after treatment
[13] = Rate 0.1250 kg/ha, preemergence, rated three to four weeks after treatment
[14] = Rate 0.2500 kg/ha, preemergence, rated three to four weeks after treatment
[15] = Rate 0.0320 kg/ha, preemergence, rated 3-4 weeks after treatment
[16] = Rate 0.0620 kg/ha, preemergence, rated 3-4 weeks after treatment
[17] = Rate 0.1250 kg/ha, preemergence, rated 3-4 weeks after treatment
[18] = Rate 0.2500 kg/ha, preemergence, rated 3-4 weeks after treatment
[19] = Rate 0.5000 kg/ha, preemergence, rated 3-4 weeks after treatment
[20] = 0.0313 kg/ha, preemergence weeds, rated three to four weeks after treatment
[21] = 0.0625 kg/ha, preemergence weeds, rated three to four weeks after treatment
[22] = 0.1250 kg/ha, preemergence weeds, rated three to four weeks after treatment
[23] = 0.2500 kg/ha, preemergence weeds, rated three to four weeks after treatment

## Cc1ccc(OCC(=O)O)c(-c2noc3cc(F)c(-n4c(=O)cc(C(F)(F)F)n(C)c4=O)cc23)c1 [Example 425, Acetic acid, {{2-{5-[3,6-dihydro-3-methyl-2,6-dioxo-4-(trifluoromethyl)-1(2H)-pyrimidinyl]-6-fluoro-1,2-benzisoxazol-3-yl}-p-tolyl}oxy}-]
[1]; 0.0320 kg/ha
  ORYSAT: 4.0
[1]; 0.0620 kg/ha
  ORYSAT: 6.0
[1]; 0.1250 kg/ha
  ORYSAT: 7.0
[1]; 0.2500 kg/ha
  ORYSAT: 8.0
[2]; [7]
  ECHORC: 6.0
[2]; [8]
  ECHORC: 9.0
[2]; [9]
  ECHORC: 9.0
[2]; [10]
  ECHORC: 9.0
[3]; [7]
  SAGPY: 0.0
[3]; [8]
  SAGPY: 0.0
[3]; [9]
  SAGPY: 3.0
[3]; [10]
  SAGPY: 4.0
[4]; [7]
  CYPSE: 0.0
[4]; [8]
  CYPSE: 3.0
[4]; [9]
  CYPSE: 3.0
[4]; [10]
  CYPSE: 3.0
[5]; [7]
  CYPIR: 0.0
[5]; [8]
  CYPIR: 0.0
[5]; [9]
  CYPIR: 6.0
[5]; [10]
  CYPIR: 9.0
[6]; [7]
  MOOVA: 6.0
[6]; [8]
  MOOVA: 7.0
[6]; [9]
  MOOVA: 9.0
[6]; [10]
  MOOVA: 9.0

## Cn1c(C(F)(F)F)cc(=O)n(-c2ccc3snc(C(Br)C#N)c3c2)c1=O (stereo not drawn) [Example 264, 1,2-Benzisothiazole-3-acetonitrile, alpha-bromo-5-[3,6-dihydro-3-methyl-2,6-dioxo-4-(trifluoromethyl)-1(2H)-pyrimidinyl]-]
[1]; Rate 0.0320 kg/ha
  ORYSAT herbicidal effect rating: 0.0
[1]; Rate 0.0620 kg/ha
  ORYSAT herbicidal effect rating: 0.0
[1]; Rate 0.1250 kg/ha
  ORYSAT herbicidal effect rating: 0.0
[1]; Rate 0.2500 kg/ha
  ORYSAT herbicidal effect rating: 5.0
[2]; [11]
  ECHORC herbicidal effect rating: 0.0
[2]; [12]
  ECHORC herbicidal effect rating: 0.0
[2]; [13]
  ECHORC herbicidal effect rating: 0.0
[2]; [14]
  ECHORC herbicidal effect rating: 2.0
[3]; [11]
  SAGPY herbicidal effect rating: 0.0
[3]; [12]
  SAGPY herbicidal effect rating: 0.0
[3]; [13]
  SAGPY herbicidal effect rating: 0.0
[3]; [14]
  SAGPY herbicidal effect rating: 0.0
[4]; [11]
  CYPSE herbicidal effect rating: 4.0
[4]; [12]
  CYPSE herbicidal effect rating: 4.0
[4]; [13]
  CYPSE herbicidal effect rating: 9.0
[4]; [14]
  CYPSE herbicidal effect rating: 9.0
[5]; [11]
  CYPIR herbicidal effect rating: 5.0
[5]; [12]
  CYPIR herbicidal effect rating: 5.0
[5]; [13]
  CYPIR herbicidal effect rating: 5.0
[5]; [14]
  CYPIR herbicidal effect rating: 5.0
[6]; [11]
  MOOVA herbicidal effect rating: 9.0
[6]; [12]
  MOOVA herbicidal effect rating: 9.0
[6]; [13]
  MOOVA herbicidal effect rating: 9.0
[6]; [14]
  MOOVA herbicidal effect rating: 9.0

## Cc1ccc(C(=O)C(C)Oc2ccccc2-c2nsc3ccc(-n4c(=O)cc(C(F)(F)F)n(C)c4=O)cc23)cc1C (stereo not drawn) [Example 550, 2,4(1H,3H)-Pyrimidinedione, 3-{-3-{o-[1-(3,4-dimethylbenzoyl)ethoxy]phenyl}-1,2-benzisothiazol-5-yl]-1-methyl-6-(trifluoromethyl)-]
[1]; Rate 0.0320 kg/ha
  herbicidal effect rating ORYSAT: 0.0
[1]; Rate 0.0620 kg/ha
  herbicidal effect rating ORYSAT: 0.0
[1]; Rate 0.1250 kg/ha
  herbicidal effect rating ORYSAT: 0.0
[1]; Rate 0.2500 kg/ha
  herbicidal effect rating ORYSAT: 0.0
[1]; Rate 0.5000 kg/ha
  herbicidal effect rating ORYSAT: 0.0
[2]; [15]
  herbicidal effect rating, ECHORC: 4.7
[2]; [16]
  herbicidal effect rating, ECHORC: 5.9
[2]; [17]
  herbicidal effect rating, ECHORC: 5.9
[2]; [18]
  herbicidal effect rating, ECHORC: 9.0
[2]; [19]
  herbicidal effect rating, ECHORC: 9.0
[3]; [15]
  herbicidal effect rating, SAGPY: 0.0
[3]; [16]
  herbicidal effect rating, SAGPY: 0.0
[3]; [17]
  herbicidal effect rating, SAGPY: 0.0
[3]; [18]
  herbicidal effect rating, SAGPY: 0.0
[3]; [19]
  herbicidal effect rating, SAGPY: 0.0
[4]; [15]
  herbicidal effect rating, CYPSE: 0.0
[4]; [16]
  herbicidal effect rating, CYPSE: 0.0
[4]; [17]
  herbicidal effect rating, CYPSE: 0.0
[4]; [18]
  herbicidal effect rating, CYPSE: 0.0
[4]; [19]
  herbicidal effect rating, CYPSE: 9.0
[5]; [15]
  herbicidal effect rating, CYPIR: 2.0
[5]; [16]
  herbicidal effect rating, CYPIR: 8.0
[5]; [17]
  herbicidal effect rating, CYPIR: 8.0
[5]; [18]
  herbicidal effect rating, CYPIR: 7.0
[5]; [19]
  herbicidal effect rating, CYPIR: 5.0
[6]; [15]
  herbicidal effect rating, MOOVA: 9.0
[6]; [16]
  herbicidal effect rating, MOOVA: 9.0
[6]; [17]
  herbicidal effect rating, MOOVA: 9.0
[6]; [18]
  herbicidal effect rating, MOOVA: 9.0
[6]; [19]
  herbicidal effect rating, MOOVA: 9.0

## C=CC(C)OCc1nsc2ccc(-n3c(=O)cc(C(F)(F)F)n(C)c3=O)cc12 (stereo not drawn) [Example 206, 1-Methyl-3-{3-[(1-methylallyloxy)methyl]-1,2-benzisothiazol-5-yl]-6-(trifluoromethyl)-2,4(1H,3H)-pyrimidinedione]
[1]; 0.0313 kg/ha
  herbicidal effect rating, ORYSAT (rice tolerance): 5.0
[1]; 0.0625 kg/ha
  herbicidal effect rating, ORYSAT (rice tolerance): 6.0
[1]; 0.1250 kg/ha
  herbicidal effect rating, ORYSAT (rice tolerance): 7.0
[1]; 0.2500 kg/ha
  herbicidal effect rating, ORYSAT (rice tolerance): 9.0
[2]; [20]
  herbicidal effect rating, ECHORC: 0.0
[2]; [21]
  herbicidal effect rating, ECHORC: 2.0
[2]; [22]
  herbicidal effect rating, ECHORC: 2.0
[2]; [23]
  herbicidal effect rating, ECHORC: 9.0
[3]; [20]
  herbicidal effect rating, SAGPY: 0.0
[3]; [21]
  herbicidal effect rating, SAGPY: 0.0
[3]; [22]
  herbicidal effect rating, SAGPY: 1.0
[3]; [23]
  herbicidal effect rating, SAGPY: 4.0
[4]; [20]
  herbicidal effect rating, CYPSE: 0.0
[4]; [21]
  herbicidal effect rating, CYPSE: 2.0
[4]; [22]
  herbicidal effect rating, CYPSE: 7.0
[4]; [23]
  herbicidal effect rating, CYPSE: 7.0
[5]; [20]
  herbicidal effect rating, CYPIR: 9.0
[5]; [21]
  herbicidal effect rating, CYPIR: 9.0
[5]; [22]
  herbicidal effect rating, CYPIR: 9.0
[5]; [23]
  herbicidal effect rating, CYPIR: 9.0
[6]; [20]
  herbicidal effect rating, MOOVA: 0.0
[6]; [21]
  herbicidal effect rating, MOOVA: 0.0
[6]; [22]
  herbicidal effect rating, MOOVA: 1.0
[6]; [23]
  herbicidal effect rating, MOOVA: 4.0
